Data as given in ChEMBL document CHEMBL1201862, “PubChem BioAssay data set” (2004).
Calls of active or inactive are those of the source.

Key:
[1] = target: Cyclin-dependent kinase 5/CDK5 activator 1 (Homo sapiens, UniProt Q00535); test: blockade of human CDK5 activity – biochemical, cherry-picked samples, set 2, dose response (AID 504545)
[2] = target: T1, RNA-binding protein pos-1 (Caenorhabditis elegans, UniProt G5EF15); test: disruptors of C. elegans POS-1 RNA interaction – biochemical, fluorescence polarization, dose response (AID 1964);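 further: purified POS-1 fused to maltose binding protein made in E. coli; potency of compounds blocking POS-1 binding to fluorescent RNA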
T1 sequence (G5EF15 whole entry): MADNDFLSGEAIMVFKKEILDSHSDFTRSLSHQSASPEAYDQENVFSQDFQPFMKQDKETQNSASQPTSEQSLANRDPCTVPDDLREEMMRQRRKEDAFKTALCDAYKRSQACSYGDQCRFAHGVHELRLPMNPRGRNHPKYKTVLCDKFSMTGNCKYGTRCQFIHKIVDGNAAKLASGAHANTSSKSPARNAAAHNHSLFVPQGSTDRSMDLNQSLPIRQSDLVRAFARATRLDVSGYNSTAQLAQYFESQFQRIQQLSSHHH

[3] = target: T2, 1-phosphatidylinositol 4,5-bisphosphate phosphodiesterase beta-3 (Homo sapiens, UniProt Q01970); test: Fluorescence-based biochemical high throughput dose response assay to identify inhibitors of phospholipase C isozymes (PLC-B3).
T2 sequence (Q01970 whole entry): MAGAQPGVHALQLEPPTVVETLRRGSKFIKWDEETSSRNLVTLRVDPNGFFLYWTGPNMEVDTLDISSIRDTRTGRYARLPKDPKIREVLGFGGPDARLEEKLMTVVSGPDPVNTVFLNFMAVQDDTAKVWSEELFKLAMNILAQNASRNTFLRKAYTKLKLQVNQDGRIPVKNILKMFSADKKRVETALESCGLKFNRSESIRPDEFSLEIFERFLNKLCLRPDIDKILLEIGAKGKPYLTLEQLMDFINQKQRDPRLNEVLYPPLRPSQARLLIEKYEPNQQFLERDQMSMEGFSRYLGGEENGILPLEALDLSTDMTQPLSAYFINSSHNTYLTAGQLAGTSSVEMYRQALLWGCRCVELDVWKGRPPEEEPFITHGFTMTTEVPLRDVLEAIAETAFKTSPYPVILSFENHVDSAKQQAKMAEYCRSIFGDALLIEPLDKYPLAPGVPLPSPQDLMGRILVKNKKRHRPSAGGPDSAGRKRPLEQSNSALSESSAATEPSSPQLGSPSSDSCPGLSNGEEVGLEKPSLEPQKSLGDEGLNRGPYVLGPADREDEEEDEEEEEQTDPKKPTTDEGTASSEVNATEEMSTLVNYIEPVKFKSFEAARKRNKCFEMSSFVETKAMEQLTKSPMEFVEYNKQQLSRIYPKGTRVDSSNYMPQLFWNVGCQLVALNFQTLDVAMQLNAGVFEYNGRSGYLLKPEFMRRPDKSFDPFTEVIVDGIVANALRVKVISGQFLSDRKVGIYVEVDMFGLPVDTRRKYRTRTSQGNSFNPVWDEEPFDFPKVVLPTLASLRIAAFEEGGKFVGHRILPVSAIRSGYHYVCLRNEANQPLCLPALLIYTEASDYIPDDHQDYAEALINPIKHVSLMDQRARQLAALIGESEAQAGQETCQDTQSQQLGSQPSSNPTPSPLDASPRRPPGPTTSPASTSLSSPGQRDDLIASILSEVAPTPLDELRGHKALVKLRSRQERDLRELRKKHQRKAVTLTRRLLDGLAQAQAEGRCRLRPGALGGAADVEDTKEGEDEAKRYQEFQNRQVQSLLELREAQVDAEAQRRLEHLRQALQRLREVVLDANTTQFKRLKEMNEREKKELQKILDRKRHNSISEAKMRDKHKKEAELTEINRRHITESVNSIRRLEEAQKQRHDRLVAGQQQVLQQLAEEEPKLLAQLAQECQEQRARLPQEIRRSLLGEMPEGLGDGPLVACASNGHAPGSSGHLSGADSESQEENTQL

[4] = target: T3, Histone-lysine N-methyltransferase NSD2 (Homo sapiens, UniProt O96028); format: biochemical
T3 sequence (O96028 whole entry): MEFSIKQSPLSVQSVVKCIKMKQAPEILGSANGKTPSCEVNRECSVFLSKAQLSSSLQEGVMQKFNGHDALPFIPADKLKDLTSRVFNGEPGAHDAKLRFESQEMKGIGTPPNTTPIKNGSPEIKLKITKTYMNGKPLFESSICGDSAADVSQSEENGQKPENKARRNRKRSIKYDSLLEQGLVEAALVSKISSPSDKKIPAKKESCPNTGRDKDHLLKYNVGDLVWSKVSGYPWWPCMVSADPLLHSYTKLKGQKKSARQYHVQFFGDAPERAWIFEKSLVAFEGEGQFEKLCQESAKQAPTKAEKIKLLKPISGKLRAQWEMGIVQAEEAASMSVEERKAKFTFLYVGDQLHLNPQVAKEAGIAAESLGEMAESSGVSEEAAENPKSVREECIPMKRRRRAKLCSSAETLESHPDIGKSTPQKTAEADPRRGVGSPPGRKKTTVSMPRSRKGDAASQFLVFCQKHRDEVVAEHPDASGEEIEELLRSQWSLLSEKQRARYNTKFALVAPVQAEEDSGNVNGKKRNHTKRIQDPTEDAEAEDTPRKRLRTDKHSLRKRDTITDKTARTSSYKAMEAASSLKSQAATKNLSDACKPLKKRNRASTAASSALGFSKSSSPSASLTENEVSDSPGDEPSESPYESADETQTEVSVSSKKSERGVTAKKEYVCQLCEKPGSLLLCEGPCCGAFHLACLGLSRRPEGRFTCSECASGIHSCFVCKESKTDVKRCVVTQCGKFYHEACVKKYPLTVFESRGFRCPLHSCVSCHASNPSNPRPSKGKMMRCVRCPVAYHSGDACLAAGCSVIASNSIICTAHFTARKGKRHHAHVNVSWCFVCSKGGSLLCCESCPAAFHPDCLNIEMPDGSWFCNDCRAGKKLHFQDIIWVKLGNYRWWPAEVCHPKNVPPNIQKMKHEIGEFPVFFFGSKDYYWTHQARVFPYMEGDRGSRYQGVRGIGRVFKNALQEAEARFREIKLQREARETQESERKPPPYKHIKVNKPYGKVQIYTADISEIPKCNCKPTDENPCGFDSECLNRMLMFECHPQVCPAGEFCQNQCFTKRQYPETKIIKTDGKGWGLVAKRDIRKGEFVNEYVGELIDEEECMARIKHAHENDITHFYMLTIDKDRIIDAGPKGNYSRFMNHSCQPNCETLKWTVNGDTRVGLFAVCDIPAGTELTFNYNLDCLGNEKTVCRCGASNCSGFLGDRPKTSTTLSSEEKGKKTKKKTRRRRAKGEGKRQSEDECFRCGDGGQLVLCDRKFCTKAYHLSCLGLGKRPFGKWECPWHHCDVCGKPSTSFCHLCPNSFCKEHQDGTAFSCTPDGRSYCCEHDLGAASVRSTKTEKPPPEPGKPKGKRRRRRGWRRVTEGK

Salmon testes DNA = test: acridine orange-DNA binding displacement – biochemical, fluorescence polarization, cherry-picked samples, set 2, artefact control for KSHV LANA DNA-binding inhibitor project, dose response (AID 504727); parameters: species or system Salmonidae

Sequence of Cyclin-dependent kinase 5/CDK5 activator 1 (Q00535 whole entry, the tested form may be a part): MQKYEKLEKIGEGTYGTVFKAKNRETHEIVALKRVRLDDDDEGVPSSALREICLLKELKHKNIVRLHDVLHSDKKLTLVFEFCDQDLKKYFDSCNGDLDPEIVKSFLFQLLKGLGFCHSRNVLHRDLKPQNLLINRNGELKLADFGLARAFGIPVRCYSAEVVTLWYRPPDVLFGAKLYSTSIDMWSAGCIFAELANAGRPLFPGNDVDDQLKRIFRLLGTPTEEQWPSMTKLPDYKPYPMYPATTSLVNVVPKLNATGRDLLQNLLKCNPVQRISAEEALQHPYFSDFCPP
Sequence of Cyclin-dependent kinase 5/CDK5 activator 1 (Q15078 whole entry, further chain, the tested form may be a part): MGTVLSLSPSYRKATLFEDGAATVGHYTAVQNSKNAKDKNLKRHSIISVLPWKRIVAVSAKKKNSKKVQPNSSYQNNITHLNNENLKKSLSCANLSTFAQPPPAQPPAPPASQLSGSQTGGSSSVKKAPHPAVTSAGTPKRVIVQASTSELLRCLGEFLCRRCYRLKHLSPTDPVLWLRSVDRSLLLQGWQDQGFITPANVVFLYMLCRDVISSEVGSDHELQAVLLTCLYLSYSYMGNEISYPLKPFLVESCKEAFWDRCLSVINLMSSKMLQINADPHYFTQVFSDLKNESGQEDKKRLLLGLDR

Compound: O=c1c(O)cccc2cc(O)c(O)c(O)c12 [PURPUROGALLIN]
- AC50 [1]: 23.2 µM (active)
- EC50 [2]: 6.57 µM (active)
- IC50 [3]: > 123 µM (inactive)
- AC50 [4]: 0.532 µM (active)
- AC50 (Salmon testes DNA): 49.9 µM (active)
